# Values quoted from earlier work as cited in patent US20090306049A1, “Treatment of Barrett's Esophagus” (HUBRECHT LABORATORIUM, priority 2005, published 2009).
# Tested on: Barrett's carcinoma
smiles,measurement,setting,value
O=P1(NCCCl)OCCCN1CCCl (stereo not shown) [ifosfamide],overall efficacy of treatment,25 patients treated,essentially ineffective
same,patients cured of metastatic adenocarcinoma in Barrett's oesophagus,25 patients treated,One
same,patients with a partial response,25 patients treated,one
same,toxicity associated with treatment,generally considered,severe toxicity
